Assays:
STAT3βtr = molecular target: T1, STAT3βtr (Homo sapiens, UniProt P40763); assay: STAT3 alkylation study, targeted LC-MS/MS (MRM, QTrap 5500) of tryptic digests; format: biochemical; conditions: for number of STAT3βtr peptides alkylated: natively folded STAT3βtr, conditions optimal for alkylation, LC-MS/MS of tryptic digest
T1 construct: STAT3 (127-722) cDNA was cloned into a pET15b vector; made in house; host or cells: E. coli BL21 (DE), pET15b
Source text: To examine if this was a possibility, recombinant STAT3 was generated post-translationally unmodified in bacteria using a cDNA construct in which the domain containing the N-terminal oligomerization domain was deleted (STAT3βtr); this domain is not necessary for native folding of the core domains of STAT3 (CCD, DBD, linker domain, and SH2 domain) and its removal markedly improves recombinant STAT3 protein solubility. STAT3βtr contains 11 Cys residues. To determine how many of these Cys residues are available to be alkylated when soluble protein is natively folded, we incubated STAT3βtr with two protein alkylating agents, iodoacetamide and N-ethylmaleimide (NEM) under conditions optimal for alkylation (FIG. 11A-11B). […] The identity of the peptides were confirmed by performing full MS/MS spectra on the detected transitions. […] Five of the peptides contained a single alkylated Cys, while one of the peptides contained two alkylated Cys residues.
Expression and purification of recombinant STAT3. STAT3 (127-722) cDNA was cloned into a pET15b vector and transformed in BL21 (DE) (Life Technologies, Inc. Woburn, MA) Expression of the recombinant protein was inducing by 0.5 mM IPTG, at 20° C. for 5 hr. The recombinant STAT3 protein was purified by ammonium sulfate precipitation followed by an ion exchange step with HiTrap Q columns (GE Healthcare Bio-Sciences, Uppsala Sweden) and size exclusion chromatography to achieve purity of over 98%.
(§1) STAT3 alkylation studies. Purified recombinant core fragment of STAT3β protein in ammonium bicarbonate buffer (10 μM) was mixed with each compound at a final concentration of 100 μM. The protein mixture was then incubated at 37° C. overnight. Samples were reduced with 5 mM DTT at 37 °C for one hour and further alkylated with iodoacetamide (15 mM) for 30 minutes at RT in the dark, followed by digestion with trypsin gold in a dry incubator at 37° C. overnight. Formic acid was added the next day to 5% and each protein sample was diluted in 5 mM ammonium acetate containing 0.5% formic acid immediately prior to analysis by Targeted Mass Spectrometry Multiple Reaction Monitoring (MRM).
LC-MS/MS. A QTRAP 5500 Sciex hybrid quadrupole-linear ion trap system with a TurboIonSpray ion source in positive mode and equipped with a Sciex LC Exion liquid chromatography system was used to analyze tryptic digests of STAT3 protein samples treated with STAT3 inhibitors. Fractionation of the samples was done using a Waters Symmetry C18 column (100 Å, 3.5 μm, 4.6 mm×150 mm) and a 30 min linear gradient of acetonitrile with 0.1% formic acid at a flow rate of 300 uL/min. A transition list of cysteine-containing peptides with expected drug-cysteine adducts were generated in Skyline software and exported to the QTRAP mass spectrometer to developed acquisition methods. Resultant raw data files generated in the QTRAP were imported back into Skyline for analysis and additional processing.

DU-145 cells = assay: Seahorse XF Cell Mito Stress Test, oxygen consumption rate (OCR); format: cell-based, human
Experimental: FIGS. 1A-1C show the effects of STAT3 inhibitors on mitochondrial function. DU-145 cells were treated with the indicated STAT3 inhibitors at 30 μM for 2 Hrs.
DU-145 cells were treated with STAT3 inhibitors at 10-30 μM for 2 Hrs. Data are representative of 4 or more independent experiments.
ATP production, maximal respiration, proton leak, and spare respiratory capacity. […] Similarly.
Mitochondrial assays. DU-145 cells (2.5×10^4) were seeded per well in a XF24 plate and incubated at 37° C./5% CO2 in complete RPMI medium. After 12 Hrs complete medium was replaced with nutrient depleted four-day culture media: conditioned media (CM) and incubated for 4 Hrs. Cells were then treated for another 2 Hrs with STAT3 inhibitors prior to analysis using a Seahorse XF24 Analyzer. The Oxygen Consumption Rate (OCR) was measured in DMEM XF base medium containing 10 mM glucose and 2 mM glutamine and 1 mM pyruvate, before and after the sequential injection of oligomycin, FCCP and rotenone/antimycin A to final concentrations of 1 μM, 1 μM and 0.5 μM respectively. Basal and maximal respiration values were estimate by subtraction of OCR value after treatment of cells with rotenone and antimycin A (which reflects non-mitochondrial respiration) from OCR values in cells treated with oligomycin and FCCP respectively.

[1] = Glutathione reaction study (UV-HPLC stability with GSH); format: physicochemical
Experimental: The AUC of each compound measured at the times indicated by UV-HPLC and expressed as percent of the starting AUC of the peaks. Data are representative of four independently performed experiments.
Each reaction mixture was sampled at time 0 and every 5 minutes for 50 minutes; all samples were analyzed by HPLC. The amount of unreacted inhibitor was determined by measuring the area under the curve (AUC) and plotting this value as a percentage of the starting AUC as a function of time (FIG. 3). […] In contrast, there was no loss of TTI-101 in the presence of GSH.
Glutathione reaction studies. STAT3 inhibitors (10 ul of 10 mM stock in DMSO) were spiked into reaction buffer [50 mM HEPES pH7.5 containing 10 mM reduced glutathione (GSH)] the samples were mixed thoroughly and placed in an autosampler set at 20° C. The reactions were monitored by high performance liquid chromatography (HPLC) using an Exion LC Sciex unit equipped with a UV detector. The stationary phase used was a C18 Synergi™ 4 μm Fusion-RP 80 Å LC column (50×2 mm); the mobile phase was water (A) and acetonitrile (B). The elution process consisted of an isocratic step with 20% mobile phase B, followed by 80% B, for 2 minutes. The flow rate was maintained at 0.5 mL/min during the run. Measurements were conducted at intervals of 5 minutes for a period of 55 minutes total. The presence of the STAT3 inhibitors were quantified by calculating the area under the curves (AUCs) of the compound peaks at 260-295 nm.

STAT3 = molecular target: T2, STAT3 (Homo sapiens, UniProt P40763); assay: STAT3 alkylation study, high resolution LC-MS/MS for unknown chemical adducts; format: biochemical; conditions: vs. STAT3 incubated with DMSO
T2 construct: STAT3 (127-722) cDNA was cloned into a pET15b vector; made in house; host or cells: E. coli BL21 (DE), pET15b
T2 sequence (P40763 127-722 isoform P40763-3): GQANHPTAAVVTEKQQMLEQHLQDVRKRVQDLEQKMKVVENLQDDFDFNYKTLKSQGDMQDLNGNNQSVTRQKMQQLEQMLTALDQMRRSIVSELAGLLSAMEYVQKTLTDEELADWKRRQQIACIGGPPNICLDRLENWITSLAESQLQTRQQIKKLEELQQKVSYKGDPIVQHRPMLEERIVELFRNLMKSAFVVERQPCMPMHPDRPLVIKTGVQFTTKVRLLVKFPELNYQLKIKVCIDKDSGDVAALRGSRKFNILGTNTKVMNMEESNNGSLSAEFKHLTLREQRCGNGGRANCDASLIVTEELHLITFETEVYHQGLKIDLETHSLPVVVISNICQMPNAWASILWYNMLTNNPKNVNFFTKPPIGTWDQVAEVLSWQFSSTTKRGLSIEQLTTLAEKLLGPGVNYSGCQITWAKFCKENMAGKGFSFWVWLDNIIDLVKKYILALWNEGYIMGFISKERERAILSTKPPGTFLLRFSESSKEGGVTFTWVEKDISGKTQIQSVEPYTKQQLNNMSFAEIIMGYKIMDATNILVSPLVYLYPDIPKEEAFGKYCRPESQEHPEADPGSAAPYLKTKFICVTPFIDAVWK
Experimental: FIGS. 11A-11C show alkylation of STAT3βtr by iodoacetamide and NEM. […] The dotted line indicates the cutoff for a significant Z-score.
as §1, with “Formic acid was added the next day to 5% and each protein sample was diluted in 5 mM ammonium acetate containing 0.5% formic acid immediately prior to analysis by Targeted Mass Spectrometry Multiple Reaction Monitoring (MRM).” left out
High resolution LC/MS. An aliquot of the tryptic digests of STAT3 proteins treated with DMSO (control) and those treated with Stattic and TTI101 were analyzed by LC-MS/MS on an Ultimate 3000 RSLC-Nano chromatograph interfaced to an Orbitrap Fusion high-resolution mass spectrometer (Thermo Scientific, Waltham MA). All MS/MS data were analyzed using Sequest-HT (Thermo Scientific). […] To access for potential unknown modifications, the data was analyzed in MaxQuant using the dependent peptide search option (Tyanova, Temu & Cox, 2016). All peptides output list was analyzed by comparing Stattic, TTI101 and TTI101ox with DMSO treated samples as described in (Antinori, Michelot, Lescuyer, Müller & Acosta-Martin, 2019).

DRG transcriptome = assay: RNA-seq and IPA analysis of dorsal root ganglia of cisplatin-treated mice; format: in vivo, mouse; conditions: cisplatin vs. PBS
Source text: Expression of 1,973 genes was changed in response to cisplatin when compared to the PBS mice (PBS vs. Cis; n=3 male mice per group). […] A cutoff of (−0.2<log 2 Fold Change <0.2) and p=0.1 was used for the analysis. […] Gray indicates effect cannot be predicted.
The mechanistic network of four regulators identified STAT3 as an intermediate regulator. […] For example, for the TP53 network, 14 regulators were part of the mechanistic network which together influence expression of 481 genes and out of these 481 genes, 64 target genes are controlled by STAT3.
RNA-seq and transcriptome analysis of dorsal root ganglion (DRG). […] Total RNA was isolated with the RNeasy MinElute Cleanup Kit (Qiagen, Hilden, Germany). Libraries were prepared with the Stranded mRNA-Seq kit (Kapa Biosystems, Wilmington, MA) following the manufacturer's guidelines. Stranded-mRNA seq was performed with a HiSeq4000 Sequencer (Illumina, San Diego, CA) with 76nt PE format by the RNA Sequencing Core at MD Anderson Cancer Center. Data analysis was performed as previously described (Chiu et al., 2018; Ma et al., 2019). Briefly, expression data of three samples per group were analyzed in R using bioconductor packages. STAR was used for alignment of paired-end reads to the mm10 version of the mouse reference genome; feature Counts was used to assign mapped sequence reads to genomic features, and DESeq2 was used to identify differentially expressed genes (padj<0.05). Quality check of raw and aligned reads was performed with FastQC and Qualimap. Next, we used Ingenuity Pathway Analysis (IPA; Qiagen Inc., https://www.qiagenbioinformatics.com/products/ingenuity-pathway-analysis/) for analysis of the canonical pathways implicated by cisplatin-induced transcriptome changes in DRG.

male C57BL/6 mice [2] = assay: Cisplatin model of chemotherapy-induced peripheral neuropathy (CIPN), von Frey mechanical allodynia; format: in vivo, mouse; conditions: two cycles of 5 daily doses of 2.3 mg/kg followed by 5 days rest
Experimental: Data were analyzed by two-way ANOVA repeated measures. Time: P<0.001; Group: P<0.001; Interaction P<0.001. **P<0.01 Tukey multiple comparison test. Data are from a representative experiment out of two with similar results.
Male C57/B16 mice (n=4 per group) were treated with cisplatin (two rounds of 5 daily doses of 2.3 mg/kg i.p. followed by 5 days of rest). […] Data were analyzed by two-way ANOVA repeated measures. Time: P<0.001; Group: P<0.001; Interaction P<0.01. **P<0.01 Tukey multiple comparison test.
Peripheral neuropathy has been observed with several small-molecule STAT3 inhibitors in clinical-stage development (Bendell et al., 2014; Genini et al., 2017; Ogura et al., 2015). […] This model was selected because it was shown previously that it is mediated by mitochondrial damage in the peripheral nervous system (Krukowski et al., 2017; Maj, Ma, Krukowski, Kavelaars & Heijnen, 2017). […] (FIG. 12).
Pain measurements and chemotherapy-induced peripheral neuropathy (CIPN).

male C57BL/6 mice [3] = conditions: Krukowski et al., 2017; cited from earlier work

T1 sequence (P40763 127-722 isoform P40763-3): as above

SMILES: CCN1C(=O)C=CC1=O [NEM, N-ethylmaleimide]
- number of STAT3βtr peptides alkylated (STAT3βtr): 6 peptides

SMILES: O=[N+]([O-])c1ccc2c(c1)S(=O)(=O)C=C2 [Stattic]
- OCR curves compared to DMSO control (DU-145 cells; 2 Hrs, 10 and 30 μM (3-fold and 10-fold TTI-101 IC50)): did not consistently alter the OCR curves
- unreacted inhibitor level (AUC) as percent of baseline in the presence of GSH ([1]; 100 μM in 50 mM HEPES pH 7.5, 10 mM GSH, within 5 minutes): < 10%
- inhibitor level in the absence of GSH ([1]; without GSH): remaining constant
- adducts on Cys containing STAT3 peptides (alkylation), targeted LC-MS/MS (STAT3βtr; STAT3βtr 10 μM, compound 100 μM, 37° C. overnight): covalent modification of STAT3
- alkylated peptides, targeted and untargeted LC-MS/MS (STAT3βtr; STAT3βtr tryptic digests, Qtrap 5500 and Orbitrap, FIGS. 4A-4C (Stattic)): eight
- chemical adducts / mass shifts of STAT3 peptides, untargeted high resolution LC-MS/MS (STAT3): adducts were detected

SMILES: N.N.[Cl][Pt][Cl] [cisplatin, reference compound]
- VEGF signaling (IPA comparison analysis) (DRG transcriptome): predicted activation of VEGF signaling
- genes down in DRG (DRG transcriptome): 675 genes
- genes up in DRG (DRG transcriptome): 1,298 genes
- genes with changed expression in DRG (DRG transcriptome): 1,973 genes
- induction of mechanical allodynia (male C57BL/6 mice [2]): induces mechanical allodynia
- duration of induced mechanical allodynia (male C57BL/6 mice [3]): at least 75 days

SMILES: C[C@H]1COC2=C1C(=O)C(=O)c1c2ccc2c1CCCC2(C)C [cryptotanshinone]
- reduction in ATP level production (DU-145 cells; 30 μM): 50%

SMILES: NC(=O)CI [iodoacetamide]
- number of STAT3βtr peptides alkylated (STAT3βtr): 6 peptides

Reference: patent publication US20240226041A1, “METHODS AND COMPOSITIONS FOR TREATMENT OF NEUROPATHIC PAIN USING STAT3 INHIBITORS” (priority 2021, published 2024)
